Experimental data taken from ChEMBL document CHEMBL3639017, “Thiazolyl mGluR5 antagonists and methods for their use” (2013).

Biological target: Metabotropic glutamate receptor 5 (Rattus norvegicus, UniProt P31424)
Test: Binding Assay: Binding assays were performed as described in Schaffhauser H, Richards J G, Cartmell J, Chaboz S, Kemp J A, Klingelschmidt A, Messer J, Stadler H, Woltering T and Mutel V (1998) In vitro binding characteristics of a new selective group II metabotropic glutamate receptor radioligand, [3H]LY354740, in rat brain. Mol Pharmacol 53:228-233) at room temperature with slight modifications.
Format: tissue-based

Chain of Metabotropic glutamate receptor 5 (P31424 whole entry): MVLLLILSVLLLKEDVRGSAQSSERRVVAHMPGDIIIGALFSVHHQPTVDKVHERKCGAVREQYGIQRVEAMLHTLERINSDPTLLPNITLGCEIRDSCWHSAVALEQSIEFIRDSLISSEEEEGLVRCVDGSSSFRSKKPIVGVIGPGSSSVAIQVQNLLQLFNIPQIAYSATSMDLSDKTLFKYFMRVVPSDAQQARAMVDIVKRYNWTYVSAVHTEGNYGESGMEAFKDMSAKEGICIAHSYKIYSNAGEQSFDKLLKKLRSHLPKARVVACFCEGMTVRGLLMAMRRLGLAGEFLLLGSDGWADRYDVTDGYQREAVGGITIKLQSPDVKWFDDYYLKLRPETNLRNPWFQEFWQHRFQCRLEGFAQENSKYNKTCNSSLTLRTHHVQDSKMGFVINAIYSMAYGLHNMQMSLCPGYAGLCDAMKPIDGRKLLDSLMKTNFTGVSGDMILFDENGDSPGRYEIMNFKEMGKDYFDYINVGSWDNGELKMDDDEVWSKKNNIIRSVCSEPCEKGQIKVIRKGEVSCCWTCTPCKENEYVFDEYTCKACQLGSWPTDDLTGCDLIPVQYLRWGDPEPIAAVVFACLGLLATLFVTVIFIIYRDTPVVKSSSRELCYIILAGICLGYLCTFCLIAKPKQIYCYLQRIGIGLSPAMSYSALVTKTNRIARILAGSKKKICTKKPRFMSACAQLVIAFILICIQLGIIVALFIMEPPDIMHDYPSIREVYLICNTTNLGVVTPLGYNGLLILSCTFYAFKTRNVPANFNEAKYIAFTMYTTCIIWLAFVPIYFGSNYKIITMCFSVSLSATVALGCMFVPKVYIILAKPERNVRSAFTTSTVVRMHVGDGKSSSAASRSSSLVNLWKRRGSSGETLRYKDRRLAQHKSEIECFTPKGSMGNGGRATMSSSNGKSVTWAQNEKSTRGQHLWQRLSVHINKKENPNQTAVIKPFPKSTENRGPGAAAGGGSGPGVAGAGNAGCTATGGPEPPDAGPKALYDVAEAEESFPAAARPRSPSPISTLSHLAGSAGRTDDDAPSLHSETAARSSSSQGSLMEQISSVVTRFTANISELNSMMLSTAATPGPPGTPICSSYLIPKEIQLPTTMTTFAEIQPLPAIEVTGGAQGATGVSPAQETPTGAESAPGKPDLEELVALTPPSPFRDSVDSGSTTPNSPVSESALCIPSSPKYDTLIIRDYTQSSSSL

- Ki: 2.6 nM
Compound: Cc1nc(C#Cc2ccc(-c3ccccc3C#N)nc2)cs1
